Reference: ChEMBL document CHEMBL1649565, “Besifloxacin, a novel fluoroquinolone, has broad-spectrum in vitro activity against aerobic and anaerobic bacteria” (Antimicrob Agents Chemother, 2009)
Values after ≈ are worked out from the molar mass of the structure shown. Active and inactive are the calls of the source. No cut-off for these calls is given here.

Columns and labels:
Format in all cases: functional
Streptococcus salivarius [1] = experiment: Antibacterial activity against Streptococcus salivarius assessed as percent susceptible isolates by CLSI M100-S18 method
Streptococcus mitis [2] = experiment: Antibacterial activity against Streptococcus mitis assessed as percent susceptible isolates by CLSI M100-S18 method
Streptococcus oralis [3] = experiment: Antibacterial activity against Streptococcus oralis by CLSI M100-S18 method
Listeria monocytogenes [4] = experiment: Antibacterial activity against Listeria monocytogenes by CLSI M100-S18 method
[5] = system: Streptococcus constellatus; experiment: Antibacterial activity against Streptococcus constellatus assessed as percent susceptible isolates by CLSI M100-S18 method
[6] = Antibacterial activity against Lancefield Streptococcus sp. 'group G' by CLSI M100-S18 method
Streptococcus oralis [7] = experiment: Antibacterial activity against Streptococcus oralis assessed as percent susceptible isolates by CLSI M100-S18 method
Neisseria meningitidis [8] = experiment: Antibacterial activity against Neisseria meningitidis assessed as percent susceptible isolates by CLSI M7-A7 method
Streptococcus pneumoniae [9] = experiment: Antibacterial activity against levofloxacin-susceptible Streptococcus pneumoniae by CLSI M100-S18 method
Streptococcus sanguinis [10] = experiment: Antibacterial activity against Streptococcus sanguinis assessed as percent susceptible isolates by CLSI M100-S18 method
Streptococcus anginosus [11] = experiment: Antibacterial activity against Streptococcus anginosus by CLSI M100-S18 method
Haemophilus influenzae [12] = experiment: Antibacterial activity against non-ciprofloxacin-susceptible Haemophilus influenzae assessed as percent susceptible isolates by CLSI M7-A7 method
Haemophilus influenzae [13] = experiment: Antibacterial activity against ciprofloxacin-susceptible Haemophilus influenzae by CLSI M7-A7 method
Streptococcus equinus [14] = experiment: Antibacterial activity against Streptococcus bovis assessed as percent susceptible isolates by CLSI M100-S18 method
[15] = Antibacterial activity against Lancefield Streptococcus sp. 'group C' by CLSI M100-S18 method
Haemophilus influenzae [16] = experiment: Antibacterial activity against non-ciprofloxacin-susceptible Haemophilus influenzae by CLSI M7-A7 method
[17] = system: Streptococcus intermedius; experiment: Antibacterial activity against Streptococcus intermedius assessed as percent susceptible isolates by CLSI M100-S18 method
Streptococcus salivarius [18] = experiment: Antibacterial activity against Streptococcus salivarius by CLSI M100-S18 method
Streptococcus mitis [19] = experiment: Antibacterial activity against Streptococcus mitis by CLSI M100-S18 method
Streptococcus sp. = experiment: Antibacterial activity against Lancefield Streptococcus sp. group F by CLSI M100-S18 method
Listeria monocytogenes [20] = experiment: Antibacterial activity against Listeria monocytogenes assessed as percent susceptible isolates by CLSI M100-S18 method
Streptococcus anginosus [21] = experiment: Antibacterial activity against Streptococcus anginosus assessed as percent susceptible isolates by CLSI M100-S18 method
Streptococcus pneumoniae [22] = experiment: Antibacterial activity against levofloxacin susceptible Streptococcus pneumoniae assessed as percent susceptible isolates by CLSI M100-S18 method
Haemophilus influenzae [23] = experiment: Antibacterial activity against ciprofloxacin-susceptible Haemophilus influenzae assessed as percent susceptible isolates by CLSI M7-A7 method
Streptococcus pyogenes = experiment: Antibacterial activity against Streptococcus pyogenes by CLSI M100-S18 method
Streptococcus sanguinis [24] = experiment: Antibacterial activity against Streptococcus sanguinis by CLSI M100-S18 method
Streptococcus equinus [25] = experiment: Antibacterial activity against Streptococcus bovis by CLSI M100-S18 method
Streptococcus pneumoniae [26] = experiment: Antibacterial activity against non-levofloxacin susceptible Streptococcus pneumoniae by CLSI M100-S18 method
[27] = system: Streptococcus constellatus; experiment: Antibacterial activity against Streptococcus constellatus by CLSI M100-S18 method
[28] = system: Streptococcus intermedius; experiment: Antibacterial activity against Streptococcus intermedius by CLSI M100-S18 method
Streptococcus pneumoniae [29] = experiment: Antibacterial activity against non-levofloxacin susceptible Streptococcus pneumoniae assessed as percent susceptible isolates by CLSI M100-S18 method
Neisseria meningitidis [30] = experiment: Antibacterial activity against Neisseria meningitidis by CLSI M7-A7 method

Work on `CC1(C)S[C@@H]2[C@H](NC(=O)Cc3ccccc3)C(=O)N2[C@H]1C(=O)O` [PENICILLIN G] yielded an Activity (Streptococcus salivarius [1]) of 53.2%, an Activity (Streptococcus mitis [2]) of 53.2% and an MIC50 (Streptococcus oralis [3]) of 16 µg/mL (≈ 47.8 µM). The MIC90 (Streptococcus oralis [3]) was 32 µg/mL (≈ 95.7 µM), the MIC50 (Listeria monocytogenes [4]) was 0.25 µg/mL (≈ 0.748 µM) and the MIC90 (Listeria monocytogenes [4]) was 0.25 µg/mL (≈ 0.748 µM). It also gave an Activity [5] of 53.2%, an MIC50 [6] of 8 µg/mL (≈ 23.9 µM) and an MIC90 [6] of 16 µg/mL (≈ 47.8 µM). It also gave an Activity (Streptococcus oralis [7]) of 53.2%, an Activity (Neisseria meningitidis [8]) of 50% and an MIC (Streptococcus pneumoniae [9]) of at most 0.06 µg/mL. It also gave an MIC50 (Streptococcus pneumoniae [9]) of at most 0.06 µg/mL, an MIC90 (Streptococcus pneumoniae [9]) of 0.5 µg/mL (≈ 1.5 µM) and an Activity (Streptococcus sanguinis [10]) of 53.2%. For the same compound, the MIC50 (Streptococcus anginosus [11]) was 0.06 µg/mL (≈ 0.179 µM), the MIC90 (Streptococcus anginosus [11]) was 1 µg/mL (≈ 2.99 µM) and the Activity (Haemophilus influenzae [12]) was “inactive”. It also gave an MIC50 (Haemophilus influenzae [13]) of 0.5 µg/mL (≈ 1.5 µM), an MIC90 (Haemophilus influenzae [13]) of over 4 µg/mL and an Activity (Streptococcus equinus [14]) of 53.2%. The MIC50 [15] was 8 µg/mL (≈ 23.9 µM), the MIC90 [15] was 16 µg/mL (≈ 47.8 µM) and the MIC50 (Haemophilus influenzae [16]) was 1 µg/mL (≈ 2.99 µM). It also gave an MIC90 (Haemophilus influenzae [16]) of 2 µg/mL (≈ 5.98 µM), an Activity [17] of 53.2% and an MIC50 (Streptococcus salivarius [18]) of 16 µg/mL (≈ 47.8 µM). The MIC90 (Streptococcus salivarius [18]) was 32 µg/mL (≈ 95.7 µM), the MIC50 (Streptococcus mitis [19]) was 16 µg/mL (≈ 47.8 µM) and the MIC90 (Streptococcus mitis [19]) was 32 µg/mL (≈ 95.7 µM). It also gave an MIC50 (Streptococcus sp.) of 8 µg/mL (≈ 23.9 µM), an MIC90 (Streptococcus sp.) of 16 µg/mL (≈ 47.8 µM) and an Activity (Listeria monocytogenes [20]) of 100%. For the same compound, the Activity (Streptococcus anginosus [21]) was 53.2%, the Activity (Streptococcus pneumoniae [22]) was 100% and the Activity (Haemophilus influenzae [23]) was “inactive”. It also gave an MIC (Streptococcus pyogenes) of at most 0.015 µg/mL, an MIC50 (Streptococcus pyogenes) of at most 0.015 µg/mL and an MIC90 (Streptococcus pyogenes) of at most 0.015 µg/mL. It also gave an MIC50 (Streptococcus sanguinis [24]) of 16 µg/mL (≈ 47.8 µM), an MIC90 (Streptococcus sanguinis [24]) of 32 µg/mL (≈ 95.7 µM) and an MIC50 (Streptococcus equinus [25]) of 16 µg/mL (≈ 47.8 µM). For the same compound, the MIC90 (Streptococcus equinus [25]) was 32 µg/mL (≈ 95.7 µM), the MIC50 (Streptococcus pneumoniae [26]) was 0.12 µg/mL (≈ 0.359 µM) and the MIC90 (Streptococcus pneumoniae [26]) was 2 µg/mL (≈ 5.98 µM). For the same compound, the MIC50 [27] was 16 µg/mL (≈ 47.8 µM), the MIC90 [27] was 32 µg/mL (≈ 95.7 µM) and the MIC50 [28] was 16 µg/mL (≈ 47.8 µM). It also gave an MIC90 [28] of 32 µg/mL (≈ 95.7 µM), an Activity (Streptococcus pneumoniae [29]) of 100% and an MIC (Neisseria meningitidis [30]) of at most 0.06 µg/mL. For the same compound, the MIC50 (Neisseria meningitidis [30]) was at most 0.06 µg/mL and the MIC90 (Neisseria meningitidis [30]) was 0.12 µg/mL (≈ 0.359 µM).
